Data taken from US20060063784A1, “Method of using substituted pyrazolo [1,5-a] pyrimidines” (priority 2004, published 2006).
Read-outs that look alike come from different tables or passages of the source.

Test system: 80S14 (p21-deficient) cells
Assay: Cytotoxicity assay using isogenic cell lines: IC50 in 80S14 (p21-deficient) cells, SRB
Format: cell-based, human
In short: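 80S14 (p21-deficient) cells seeded at 12,000 cells/well overnight, then exposed 5 days at 37 °C to serial dilutions (5 pM–50 μM or 170 pg/ml–10 μg/ml). TCA-fixed, sulforhodamine B-stained, absorbance at 560 nm; IC50 taken from cytotoxicity curves versus untreated controls.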

[1] = Homo sapiens, 80S14, 120 h, read-out: IC50 for 80S14 (uM)
[2] = 80S14 p21-deficient cells, 5 days incubation, SRB, read-out: IC50 for 80SI4
[3] = Homo sapiens, 120 h, 80S14 p21-deficient cells, 5 days incubation, SRB, read-out: IC50 for 80SI4
[4] = Homo sapiens, 80S14, 120 h, read-out: IC50 for 80SI4 (uM)
[5] = Homo sapiens, 120 h, 80S14 (p21-deficient) cells, 5 days, SRB, class symbols, read-out: IC50 for 80S14
[6] = 80S14 (p21-deficient) cells, 5 days, SRB, class symbols, read-out: IC50 for 80S14

Molecule `CC(C)CC(=O)Nc1cccc(-c2ccnc3c(C(=O)C4CCCC4)cnn23)c1` [Example 296, N-{3-[3-(Cyclopentylcarbonyl)pyrazolo[1,5-a]pyrimidin-7-yl]phenyl}-3-methylbutanamide] has an IC50 [1] of 1 to 10 µM.
Molecule `CCCCCNC(=O)NCC(=O)Nc1cccc(-c2ccnc3c(C(=O)c4cccs4)cnn23)c1` [Example 136, N-2-[(pentylamino)carbonyl]-N-1-{3-[3-(thien-2-ylcarbonyl)pyrazolo[1,5-a]pyrimidin-7-yl]phenyl}gylcinamide] has an IC50 [2] of 10 to 50 µM.
For `Cc1ccccc1CC(=O)Nc1cccc(-c2ccnc3c(C(=O)c4cccs4)cnn23)c1` [Example 68, 2-(2-methylphenyl)-N-{3-[3-(thien-2-ylcarbonyl)pyrazolo[1,5-a]pyrimidin-7-yl]phenyl}acetamide], the IC50 [3] was < 1 µM.
`CCCCCCCOc1ccc(C(=O)Nc2cccc(-c3ccnc4c(C(=O)c5cccs5)cnn34)c2)cc1` [Example 91, 4-(heptyloxy)-N-{3-[3-(thien-2-ylcarbonyl)pyrazolo[1,5-a]pyrimidin-7-yl]phenyl}benzamide] was tested, and the IC50 [3] was 10 to 50 µM.
With `CC(C)COC(=O)Nc1cccc(-c2ccnc3c(C(=O)c4cccs4)cnn23)c1` [Example 16, isobutyl 3-[3-(thien-2-ylcarbonyl)pyrazolo[1,5-a]pyrimidin-7-yl]phenylcarbamate] the IC50 [4] was < 1 µM.
`O=C(CC1CCCC1)Nc1cccc(-c2ccnc3c(C(=O)c4cccs4)cnn23)c1` [Example 73, 2-cyclopentyl-N-{3-[3-(thien-2-ylcarbonyl)pyrazolo[1,5-a]pyrimidin-7-yl]phenyl}acetamide] was tested, and the IC50 [3] was < 1 µM.
For `CC(=O)N(C)c1cccc(-c2ccnc3c(C(=O)c4cccs4)cnn23)c1` [Example 238, N-Methyl-N-[3-[3-(2-thienylcarbonyl)-pyrazolo[1,5-a]pyrimidin-7-yl]phenyl}-acetamide], the IC50 [1] was 10 to 50 µM.
In the case of `O=C(CNC(=O)OCc1ccccc1)Nc1cccc(-c2ccnc3c(C(=O)c4cccs4)cnn23)c1` [Example 125, benzyl 2-oxo-2-({3-[3-(thien-2-ylcarbonyl)pyrazolo[1,5-a]pyrimidin-7-yl]phenyl}amino)ethylcarbamate], the IC50 [3] is reported as 1 to 10 µM.
`O=C(Nc1cccc(-c2ccnc3c(C(=O)c4cccs4)cnn23)c1)c1ccc(F)c(F)c1` [Example 102, 3,4-difluoro-N-{3-[3-(thien-2-ylcarbonyl)pyrazolo[1,5-a]pyrimidin-7-yl]phenyl}benzamide] showed an IC50 [3] of 1 to 10 µM.
With `CC(C)CNc1cccc(-c2ccnc3c(C(=O)c4cccs4)cnn23)c1` [Example 404, {7-[3-(Isobutylamino)phenyl]pyrazolo[1,5-a]pyrimidin-3-yl}(thien-2-yl)methanone] the IC50 [5] was 1 to 10 µM.
Molecule `Cc1nn2c(-c3cccc(NC(=O)CC(C)C)c3)ccnc2c1C(=O)c1cccs1` [Example 307, 3-Methyl-N-{3-[2-methyl-3-(2-thienylcarbonyl)pyrazolo[1,5-a]pyrimidin-7-yl]phenyl}butanamide] has an IC50 [5] of 10 to 50 µM.
In the case of `C/C(=C\c1ccc(C(C)(C)C)cc1)CNc1cccc(-c2ccnc3c(C(=O)c4cccs4)cnn23)c1` [Example 413, [7-(3-{[(2E)-3-(4-tert-Butylphenyl)-2-methylprop-2-enyl]amino}phenyl)pyrazolo[1,5-a]pyrimidin-3-yl](thien-2-yl)methanone], the IC50 [5] is reported as 10 to 50 µM.
With `CC(C)OC(=O)Nc1cccc(-c2ccnc3c(C(=O)c4ccccc4)cnn23)c1` [Example 294, Isopropyl 3-(3-benzoylpyrazolo[1,5-a]pyrimidin-7-yl)phenylcarbamate] the IC50 [1] was < 1 µM.
In the case of `C#CCN(C(=O)C1CC1)c1cccc(-c2ccnc3c(C(=O)c4cccs4)cnn23)c1` [Example 259, N-2-Propynyl-N-[3-[3-(2-thienylcarbonyl)pyrazolo[1,5-a]pyrimidin-7-yl]phenyl}-cyclopropanecarboxamide], the IC50 [5] is reported as 1 to 10 µM.
For `Cc1ccc(C(=O)Nc2cccc(-c3ccnc4c(C(=O)c5cccs5)cnn34)c2)cc1` [Example 87, 4-methyl-N-{3-[3-(thien-2-ylcarbonyl)pyrazolo[1,5-a]pyrimidin-7-yl]phenyl]benzamide], the IC50 [3] was < 1 µM.
In the case of “N-{3-[3-(2-Thienylcarbonyl)pyrazolo[1,5-a]pyrimidin-7-yl]phenyl}-3-trifluoromethyl)benzamide [Example 281]”, the IC50 [6] is reported as < 1 µM.
With `CC(C)NC(=O)Nc1cccc(-c2ccnc3c(C(=O)c4cccs4)cnn23)c1` [Example 6, N-isopropyl-N′-{3-[3-(thien-2-ylcarbonyl)pyrazolo[1,5-a]pyrimidin-7-yl]phenyl}urea] the IC50 [3] was < 1 µM.
In the case of `C=CCOC(=O)NCC(=O)Nc1cccc(-c2ccnc3c(C(=O)c4cccs4)cnn23)c1` [Example 124, allyl 2-oxo-2-({3-[3-(thien-2-ylcarbonyl)pyrazolo[1,5-a)pyrimidin-7-yl]phenyl}amino)ethylcarbamate], the IC50 [3] is reported as 10 to 50 µM.
`Cc1ccc(OC(=O)Nc2cccc(-c3ccnc4c(C(=O)c5cccs5)cnn34)c2)cc1` [Example 23, 4-methylphenyl 3-[3-(thien-2-ylcarbonyl)pyrazolo[1,5-a]pyrimidin-7-yl]phenylcarbamate] was tested, and the IC50 [4] was 10 to 50 µM.
With `CCCCNC(=O)Nc1cccc(-c2c(C)cnc3c(C(=O)c4cccs4)cnn23)c1` [Example 221, N-butyl-N′-{3-[6-methyl-3-(thien-2-ylcarbonyl)pyrazolo[1,5-a]pyrimidin-7-yl]phenyl}urea] the IC50 [3] was 10 to 50 µM.
With `COCCOc1cccc(-c2ccnc3c(C(=O)c4cccs4)cnn23)c1` [Example 264, [7-[3-(2-Methoxyethoxy)phenyl]pyrazolo[1,5-a]pyrimidin-3-yl]-2-thienyl-methanone] the IC50 [5] was 1 to 10 µM.
Work on `CC(C)(C)C(=O)Nc1cccc(-c2ccnc3c(C(=O)c4ccccc4)cnn23)c1` [Example 242, N-[3-(3-Benzoylpyrazolo[1,5-a]-pyrimidin-7-yl)phenyl]-2,2-dimethyl-propanamide] yielded an IC50 [1] of 1 to 10 µM.
`O=C(/C=C/c1ccccc1)Nc1cccc(-c2ccnc3c(C(=O)c4cccs4)cnn23)c1` [Example 71, (2E)-3-phenyl-N-{3-[3-(thien-2-ylcarbonyl)pyrazolo[1,5-a]pyrimidin-7-yl]phenyl}prop-2-enamide] gave an IC50 [3] of 1 to 10 µM.
For `CCC(C)CNc1cccc(-c2ccnc3c(C(=O)c4cccs4)cnn23)c1` (centres unmarked) [Example 402, (7-{3-[(2-Methylbutyl)amino]phenyl}pyrazolo[1,5-a]pyrimidin-3-yl)(thien-2-yl)methanone], the IC50 [5] was 1 to 10 µM.
“tert-Butyl 4-[({3-[3-[3-(thien-2-ylcarbonyl)pyrazolo[1,5-a]pryimidin-7-yl]phenyl}amino)carbonyl]piperidine-1-carboxylate [Example 405]” gave an IC50 [6] of 1 to 10 µM.
`CC(C)(C)C(=O)Nc1cccc(-c2ccnc3c(C(=O)c4cccs4)cnn23)c1` [Example 48, 2,2-dimethyl-N-{3-[3-(thien-2-ylcarbonyl)pyrazolo[1,5-a]pyrimidin-7-yl]phenyl}propanamide] was tested, and the IC50 [4] was < 1 µM.
With `N[C@H](C(=O)Nc1cccc(-c2ccnc3c(C(=O)c4cccs4)cnn23)c1)C1CCCCC1` [Example 86] the IC50 [2] was 1 to 10 µM.
`Cc1ccc(-c2ccnc3c(C(=O)c4cccs4)cnn23)cc1NC(=O)c1ccccc1` [Example 309, N-{2-Methyl-5-[3-(2-thienylcarbonyl)pyrazolo[1,5-a]pyrimidin-7-yl]phenyl}benzamide] was tested, and the IC50 [5] was 1 to 10 µM.
For `COc1ccc(-c2ccnc3c(C(=O)c4cccs4)cnn23)cc1NC(=O)CC(C)C` [Example 317, N-{2-Methoxy-5-[3-(2-thienylcarbonyl)pyrazolo[1,5-a]pyrimidin-7-yl]phenyl}-3-methylbutanamide], the IC50 [5] was 1 to 10 µM.
